Data from the NIST ThermoML archive (doi:10.1021/je200421s).

Key:
[1] = mn = molality of the nth substance listed, in mol/kg; settings: 101 kPa, Liquid, Vibrating tube method
[2] = refractive index (Na D-line) (dimensionless); mn = molality of the nth substance listed, in mol/kg; settings: 298.15 K, 101 kPa, Liquid, Standard Abbe refractometry

CC(=O)NCCCCCCNC(C)=O [N,N'-diacetyl-1,6-hexanediamine] + O
mass density [kg/m3], [1]
Settings | m1 = 0.0999 | m1 = 0.1498 | m1 = 0.1998 | m1 = 0.25 | m1 = 0.3001 | m1 = 0.3503 | m1 = 0.3984
288.15 K | 1000.16 | 1000.68 | 1001.23 | 1001.78 | 1002.34 | 1002.88 | 1003.42
293.15 K | 999.201 | 999.691 | 1000.2 | 1000.72 | 1001.25 | 1001.75 | 1002.26
298.15 K | 997.982 | 998.441 | 998.923 | 999.415 | 999.908 | 1000.38 | 1000.87
303.15 K | 996.53 | 996.965 | 997.419 | 997.884 | 998.347 | 998.795 | 999.248
308.15 K | 994.869 | 995.284 | 995.708 | 996.146 | 996.58 | 997.002 | 997.432

[2]
Settings | refractive index
m1 = 0.0999 | 1.335
m1 = 0.1498 | 1.3365
m1 = 0.1998 | 1.338
m1 = 0.25 | 1.3396
m1 = 0.3001 | 1.3409
m1 = 0.3503 | 1.342
m1 = 0.3984 | 1.3433

OC[C@H]1O[C@@](CO)(O[C@H]2O[C@H](CO)[C@@H](O)[C@H](O)[C@H]2O)[C@@H](O)[C@@H]1O [D-sucrose] + O
mass density [kg/m3], [1]
Settings | m1 = 0.05 | m1 = 0.1 | m1 = 0.2 | m1 = 0.3 | m1 = 0.5 | m1 = 0.8
288.15 K | 1005.67 | 1012.18 | 1024.44 | 1036.52 | 1059.36 | 1089.54
293.15 K | 1004.73 | 1011.2 | 1023.38 | 1035.39 | 1058.1 | 1088.1
298.15 K | 1003.53 | 1009.97 | 1022.08 | 1034.03 | 1056.62 | 1086.46
303.15 K | 1002.11 | 1008.5 | 1020.57 | 1032.45 | 1054.93 | 1084.64
308.15 K | 1000.46 | 1006.83 | 1018.84 | 1030.68 | 1053.07 | 1082.65

[2]
Settings | refractive index
m1 = 0.05 | 1.3343
m1 = 0.1 | 1.3368
m1 = 0.2 | 1.3415
m1 = 0.3 | 1.3458
m1 = 0.5 | 1.3542
m1 = 0.8 | 1.3656

O=C[C@H](O)[C@@H](O)[C@H](O)[C@H](O)CO [D-glucose] + O
mass density [kg/m3], [1]
Settings | m1 = 0.05 | m1 = 0.1 | m1 = 0.2 | m1 = 0.3 | m1 = 0.5 | m1 = 0.8
288.15 K | 1002.58 | 1006 | 1012.64 | 1019.21 | 1031.87 | 1050.04
293.15 K | 1001.65 | 1005.04 | 1011.63 | 1018.15 | 1030.73 | 1048.76
298.15 K | 1000.46 | 1003.84 | 1010.38 | 1016.85 | 1029.34 | 1047.27
303.15 K | 999.043 | 1002.39 | – | 1015.33 | 1027.75 | 1045.58
308.15 K | – | 1000.75 | – | 1013.63 | 1025.96 | 1043.7

[2]
Settings | refractive index
m1 = 0.05 | 1.3331
m1 = 0.1 | 1.3343
m1 = 0.2 | 1.3368
m1 = 0.3 | 1.3392
m1 = 0.5 | 1.3443
m1 = 0.8 | 1.351

O [water] + CC(=O)NCCCCCCNC(C)=O
Settings | refractive index
[2], m2 = 0 | 1.332
